Source: US20130178483A1, “Methods and Compositions for Inhibition of Bone Resorption” (Pharmacyclics, Inc., priority 2011, published 2013)

How the values were obtained:
[1] = 24 h post dose
[2] = tested on: BCR-activated calcium flux in Ramos cells; experiment: BCR-induced calcium flux assay in anti-IgM stimulated Ramos cells; details: Homo sapiens, read-out: Ramos Cell Ca Flux IC50 (nM)
[3] = tested on: human monocyte derived osteoclasts; experiment: Human monocyte derived osteoclastogenesis (M-CSF/RANKL), TRAP and actin staining; assay type: cell-based
Source text: Further, as depicted in FIG. 18, and FIG. 19, the BTK inhibitors described herein inhibit RANKL induced Btk, PLC-g, Erk and NF-kB activation of osteoclasts derived from human monocytes and murine RAW cells.
We confirmed by immunoblotting that activation of Btk mediates osteoclastogenesis induced by M-CSF and RANKL in CD14+ OC. precursor cells. Phosphorylation of Btk and its downstream PLCγ2 was induced by M-CSF/RANKL in CD14+ monocytes from human donors and mouse RAW 264.7 cells (FIG. 20A). […] At the end of 2-week culture of M-CSF/RANKL-stimulated normal donor monocytes (donor number>4) in plastic tissue culture plates, we observed a significant reduction in multinucleated mature Osteoclast (OC) numbers (TRAP+, >3 nuclei and >50 μm per OC cell, p<0.01), as well as irregular TRAP staining pattern of multinucleated OC influenced by the BtK inhibitor, in a dose-dependent fashion (FIG. 20C-E). To further assess the effects of PCI-32765 on osteoclastogenesis, OC precursor cells from human donors were cultured on glass cover slips, followed by immunofluorescence staining for actin cytoskeleton and pit formation assay for bone resorption activity. […] Most importantly, the Btk inhibitors described herein profoundly diminished bone erosion area formed by OCs cultured on dentine slices in pit formation assays, with or without dexamethasone (FIG. 21D).

[4] = tested on: INA-6 MM cells in implanted human bone; experiment: SCID-hu model of human multiple myeloma bone disease; assay type: in vivo, SCID-hu mice; details: 12 mg/kg, vs vehicle control
Source text: FIG. 22A-22F show inhibition of multiple myeloma (MM) cell growth and MM-induced bone lysis in a murine model of human MM by administration of a Btk inhibitor described herein. […] Tissue slides were stained with H&E and immunohistochemically analyzed for CD138 (MM), TRAP(OC), and ALP (OB). Original magnification, ×200 except for ALP (×400). […] Effects of Btk inhibitor treatment were also quantitated in the left (mouse L) and right (mouse R) normal mouse extremities (FIG. 22F)
Btk inhibition by the compounds described herein and suppression of MM cell growth and […] were studied in vivo in a mouse model of MM bone disease, the SCID-hu model (FIG. 22A). MM cell growth was quantitated by measuring soluble IL6R (sIL6R) secreted by INA-6 MM cells in murine blood, and mice were treated with a compound of Formula (A), (B), (C), or (D) following first detection of tumor growth. […] Histologic analysis and immunohistochemistry for CD138 and TRAP staining confirmed decreased numbers of MM cells and reduced bone resorption activity in the human bones retrieved from the mice treated with the compound, as compared with the control group (FIG. 22B).

## C=CC(=O)N1CCCC(n2nc(-c3ccc(Oc4ccccc4)cc3)c3c(N)ncnc32)C1 (stereo not drawn) [Compound 4, 1-(3-(4-amino-3-(4-phenoxyphenyl)-1H-pyrazolo[3,4-d]pyrimidin-1-yl)piperidin-1-yl)prop-2-en-1-one]
[1]
  levels twenty four hours post dose: below the level of quantitation

## CN(C)C/C=C/C(=O)N1CCCC(n2nc(-c3ccc(Oc4ccccc4)cc3)c3c(N)ncnc32)C1 (stereo not drawn) [Compound 15, (E)-1-(3-(4-amino-3-(4-phenoxyphenyl)-1H-pyrazolo[3,4-d]pyrimidin-1-yl)piperidin-1-yl)-4-(dimethylamino)but-2-en-1-one]
[2]
  IC50: 36 nM

## C=CC(=O)N1CCC[C@@H](n2nc(-c3ccc(Oc4ccccc4)cc3)c3c(N)ncnc32)C1 [PCI-32765]
[3]; human OC precursor cells on glass cover slips
  numbers of mature OC, treated versus normal OC cultures: Significantly reduced numbers of mature OC
[3]; human OCs on glass cover slips, p<0.01
  spreading area per cell and number of nuclei per OC: expanded spreading area per cell
[4]; micro-CT
  MM-induced osteolysis / bone lysis in implanted human bone: significantly reduced osteolysis
[4]; p<0.01
  osteogenic activity (ALP expression, ALP+/BS) in implanted human bone: enhanced osteogenic activity
